Type in all cases: in vivo
The subject of data set [1] is Cabbage Looper (Trichloplusia Ni, TRIPNI). Nature of the data set: Insecticidal test for cabbage looper (CL), 128-well diet tray assay. The conditions noted are these: Trichoplusia ni, 168 h, read-out: CL % Control (or Mortality) rating. The method in brief: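 Second-instar larvae on artificial diet treated with 50 μg/cm^2 compound (acetone-water 90:10), dried; held 25° C., 14:10 light-dark, five to seven days. Percent mortality per well, averaged over eight wells.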

Data set [2] concerns Yellow Fever Mosquito (Aedes aegypti, AEDSAE). Briefly: Insecticidal test for yellow fever mosquito (YFM), 96-well plate larval assay. The conditions noted are these: from 4000 ppm DMSO master solution, diluted; about 1 day-old larvae; room temperature; scored after 3 days. The method in brief:
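Compounds from 4000 ppm DMSO master stocks (diluted with 90:10 water/acetone) dispensed into wells, then infested with ~1-day-old Aedes aegypti larvae in liver-powder water; 6 replicate plates. Lidded plates held at room temperature 3 days, then each well scored for mortality.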

For data set [3], the system named is Beet Armyworm (Spodoptera exigua, LAPHEG). Briefly: Insecticidal test for beet armyworm (BAW), 128-well diet tray assay. The following applies: 168 h, 50 μg/cm^2 of test compound on artificial diet, second instar larvae, 25° C., five to seven days, average of eight wells, read-out: BAW % Control (or Mortality) rating. The method in brief:
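Second-instar larvae placed on artificial diet surface-treated with 50 μg/cm^2 compound (in acetone-water), eight wells per compound. Held at 25° C, 14:10 light-dark for five to seven days; percent mortality averaged across the eight wells.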

These results are taken from patent publication US11332452B2, “Pesticidal compositions and methods” (priority 2019, dated 2022).

By mortality is commonly meant the percentage killed. Regarding `CC(Cc1ccc(NC(=O)Nc2ccc(C(F)(F)F)cc2)cc1)NC(=O)/N=C1\SCC(=O)N1c1cc(Cl)ccc1C(C)C` (stereo not drawn) [Compound A29, (Z)-1-(4-(2-(3-(3-(5-Chloro-2-isopropylphenyl)-4-oxothiazolidin-2-ylidene)ureido)propyl)phenyl)-3-(4-(trifluoromethyl)phenyl)urea], the mortality at 50 µg/cm2 in data set [1] and in data set [3] was 50 to 100% in each case. Also, the “YFM % Control (or Mortality) rating” value in data set [2] is reported as “A (80-100)”.

`Cc1ccc(C(C)C)c(N2C(=O)CS/C2=N\C(=O)Nc2ccc(CNC(=O)Nc3ccc(OC(F)(F)F)cc3)cc2)c1` [Compound A43, (Z)-1-(4-(3-(3-(2-isopropyl-5-methylphenyl)-4-oxothiazolidin-2-ylidene)ureido)benzyl)-3-(4-(trifluoromethoxy)phenyl)urea]: the mortality at 50 µg/cm2 in data set [1] and in data set [3] was 50 to 100% in each case. Moreover, the “YFM % Control (or Mortality) rating” value in data set [2] is recorded as “A (80-100)”.

Regarding `CCc1cccc(C)c1N1C(=O)CS/C1=N\C(=O)NCCc1ccc(NC(=O)Nc2ccc(C(F)(F)F)cc2)cc1` [Compound A11, (Z)-1-(4-(2-(3-(3-(2-Ethyl-6-methylphenyl)-4-oxothiazolidin-2-ylidene)ureido)ethyl)phenyl)-3-(4-(trifluoromethyl)phenyl)urea], the mortality at 50 µg/cm2 in data set [1] and in data set [3] was 50 to 100% throughout. In data set [2], the “YFM % Control (or Mortality) rating” value is “A (80-100)”.

Turning to `CCC(C)Oc1ccc(C)cc1N1C(=O)CS/C1=N\C(=O)NCCc1ccc(NC(=O)Nc2ccc(OC(F)(F)F)cc2)cc1` (stereo not drawn) [Compound A20], the mortality at 50 µg/cm2 in data set [1] and in data set [3] was 50 to 100% in each case. The “YFM % Control (or Mortality) rating” value in data set [2] is given as “B (More than 0-Less than 80)”.

As for `CCC(C)Oc1ccc(C)cc1N1C(=O)CS/C1=N\C(=O)NC(C)Cc1ccc(NC(=O)Nc2ccc(OC(F)(F)F)cc2)cc1` (stereo not drawn) [Compound A39, (Z)-1-(4-(2-(3-(3-(2-(sec-Butoxy)-5-methylphenyl)-4-oxothiazolidin-2-ylidene)ureido)propyl)phenyl)-3-(4-(trifluoromethoxy)phenyl)urea], the mortality at 50 µg/cm2 in data set [1] and in data set [3] was 50 to 100% in each case. The “YFM % Control (or Mortality) rating” value in data set [2] is recorded as “D (No activity noticed in this bioassay)”.
